One assay addresses EGFR L858R (Homo sapiens, UniProt P00533, L858R). The assay is described as follows: EGFR biochemical assay (headed HTRF-based; method describes Z'-LYTE), L858R. The following applies: Table 4. In a few lines:
(§1)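 Z′-LYTE FRET assay: compounds, added from 4% DMSO, were combined with kinase/peptide mix and ATP in 50 mM HEPES pH 7.5, 10 mM MgCl2, 1 mM EGTA, 0.01% BRIJ-35. The reaction ran 60 min at room temperature, then development reagent was added for 60 min. Coumarin (443 nm)/fluorescein (520 nm) emission ratio gave phosphorylation and IC50.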

The target of the next assay is EGFR L858R/T790M (Homo sapiens, UniProt P00533, L858R/T790M). The assay is described as follows: EGFR biochemical assay (headed HTRF-based; method describes Z'-LYTE), L858R/T790M. The following applies: Table 4. In a few lines: as §1
Chain of EGFR L858R/T790M (P00533 25-1210 T790M/L858R): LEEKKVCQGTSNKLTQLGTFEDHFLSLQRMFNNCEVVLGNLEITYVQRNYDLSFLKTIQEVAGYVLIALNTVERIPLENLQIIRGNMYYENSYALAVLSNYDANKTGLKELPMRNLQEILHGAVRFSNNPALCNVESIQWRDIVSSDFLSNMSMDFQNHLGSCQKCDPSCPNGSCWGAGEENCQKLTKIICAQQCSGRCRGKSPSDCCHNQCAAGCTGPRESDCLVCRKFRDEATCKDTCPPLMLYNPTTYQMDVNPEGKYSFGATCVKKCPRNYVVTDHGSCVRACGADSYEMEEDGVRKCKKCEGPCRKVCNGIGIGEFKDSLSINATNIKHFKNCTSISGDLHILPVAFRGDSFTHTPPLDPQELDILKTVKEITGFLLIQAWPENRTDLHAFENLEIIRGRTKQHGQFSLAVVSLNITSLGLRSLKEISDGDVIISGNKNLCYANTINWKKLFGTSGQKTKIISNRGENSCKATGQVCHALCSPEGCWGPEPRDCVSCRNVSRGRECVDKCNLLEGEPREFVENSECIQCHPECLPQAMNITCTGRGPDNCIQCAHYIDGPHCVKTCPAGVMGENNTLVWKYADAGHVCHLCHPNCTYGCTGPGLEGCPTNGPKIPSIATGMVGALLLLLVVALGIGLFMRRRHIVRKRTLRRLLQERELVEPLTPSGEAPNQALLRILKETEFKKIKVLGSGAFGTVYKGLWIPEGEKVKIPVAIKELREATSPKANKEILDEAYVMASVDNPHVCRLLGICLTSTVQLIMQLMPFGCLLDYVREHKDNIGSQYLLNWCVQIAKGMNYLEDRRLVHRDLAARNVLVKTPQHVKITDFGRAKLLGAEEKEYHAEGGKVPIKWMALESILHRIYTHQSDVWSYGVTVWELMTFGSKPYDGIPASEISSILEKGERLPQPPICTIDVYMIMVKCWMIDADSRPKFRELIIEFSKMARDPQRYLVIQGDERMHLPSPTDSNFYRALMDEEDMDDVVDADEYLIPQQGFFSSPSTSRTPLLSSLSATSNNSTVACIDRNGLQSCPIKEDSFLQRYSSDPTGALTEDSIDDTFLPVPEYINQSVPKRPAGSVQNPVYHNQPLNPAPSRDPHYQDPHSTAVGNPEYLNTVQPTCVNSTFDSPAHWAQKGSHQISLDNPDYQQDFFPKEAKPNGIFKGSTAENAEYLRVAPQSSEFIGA
Assay [1] deals with EGFR mutant L858R Ba/F3 cells (Homo sapiens, UniProt P00533, L858R, cells depend on it). The assay is described as follows: Ba/F3 cell proliferation (Cell Titer Glo), EGFR L858R. Format: cell-based, murine. The following applies: 72 hours, Table 6, read-out: L858R BaF3. In a few lines: (§2)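 Retrovirally transduced, puromycin-selected Ba/F3 cells expressing EGFR L858R or L858R/C797S, grown in RPMI + 10% FBS, exposed to compounds for 72 h in triplicate. Viability by Cell Titer Glo ATP luminescence; IC50 from sigmoidal dose-response fit, binned A <0.1, B 0.1–0.5, C 0.5–2.5, D ≥2.5 μM.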
Chain of EGFR mutant L858R Ba/F3 cells (P00533 whole entry L858R): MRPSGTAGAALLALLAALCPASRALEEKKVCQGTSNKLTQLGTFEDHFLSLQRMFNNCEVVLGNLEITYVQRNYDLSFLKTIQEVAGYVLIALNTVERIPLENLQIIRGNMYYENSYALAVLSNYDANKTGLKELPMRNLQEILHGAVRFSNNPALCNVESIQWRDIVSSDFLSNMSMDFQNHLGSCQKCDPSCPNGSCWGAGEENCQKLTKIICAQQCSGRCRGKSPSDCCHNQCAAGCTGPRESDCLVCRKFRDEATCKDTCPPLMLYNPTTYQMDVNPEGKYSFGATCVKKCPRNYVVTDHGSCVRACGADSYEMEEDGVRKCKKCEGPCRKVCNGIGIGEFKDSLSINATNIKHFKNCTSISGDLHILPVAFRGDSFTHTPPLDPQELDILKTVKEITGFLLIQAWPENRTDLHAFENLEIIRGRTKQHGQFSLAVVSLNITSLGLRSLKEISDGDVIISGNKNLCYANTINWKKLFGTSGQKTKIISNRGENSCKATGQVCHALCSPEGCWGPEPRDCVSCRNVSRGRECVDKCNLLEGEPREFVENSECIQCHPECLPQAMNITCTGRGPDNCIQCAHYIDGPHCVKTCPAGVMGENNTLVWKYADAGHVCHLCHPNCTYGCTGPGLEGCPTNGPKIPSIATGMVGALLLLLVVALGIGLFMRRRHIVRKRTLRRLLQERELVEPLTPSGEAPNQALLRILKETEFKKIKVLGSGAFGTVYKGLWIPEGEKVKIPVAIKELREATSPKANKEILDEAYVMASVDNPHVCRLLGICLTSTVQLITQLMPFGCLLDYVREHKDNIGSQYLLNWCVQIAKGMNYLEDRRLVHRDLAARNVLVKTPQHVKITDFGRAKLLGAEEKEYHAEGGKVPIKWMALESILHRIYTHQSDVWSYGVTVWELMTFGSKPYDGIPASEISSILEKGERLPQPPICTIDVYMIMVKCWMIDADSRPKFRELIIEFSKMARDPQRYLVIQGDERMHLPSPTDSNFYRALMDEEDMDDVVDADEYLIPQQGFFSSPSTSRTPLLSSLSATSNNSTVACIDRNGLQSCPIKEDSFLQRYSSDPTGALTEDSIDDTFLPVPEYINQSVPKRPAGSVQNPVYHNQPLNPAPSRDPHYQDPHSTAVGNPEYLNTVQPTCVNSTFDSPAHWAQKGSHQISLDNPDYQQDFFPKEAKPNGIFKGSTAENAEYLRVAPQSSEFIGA
A general note: Cellular ATP, detected with luciferase, serves as a proxy for viable cell number.

In assay [2] the target is EGFR L858R/C797S Ba/F3 cells (Homo sapiens, UniProt P00533, C797S/L858R, cells depend on it). Briefly: Ba/F3 cell proliferation (Cell Titer Glo), EGFR L858R/C797S. The following applies: 72 hours, Table 6. Type of assay: cell-based, murine. In a few lines:
as §2

SMILES strings stand for the structures.

Chain of EGFR L858R/C797S Ba/F3 cells (P00533 whole entry C797S/L858R): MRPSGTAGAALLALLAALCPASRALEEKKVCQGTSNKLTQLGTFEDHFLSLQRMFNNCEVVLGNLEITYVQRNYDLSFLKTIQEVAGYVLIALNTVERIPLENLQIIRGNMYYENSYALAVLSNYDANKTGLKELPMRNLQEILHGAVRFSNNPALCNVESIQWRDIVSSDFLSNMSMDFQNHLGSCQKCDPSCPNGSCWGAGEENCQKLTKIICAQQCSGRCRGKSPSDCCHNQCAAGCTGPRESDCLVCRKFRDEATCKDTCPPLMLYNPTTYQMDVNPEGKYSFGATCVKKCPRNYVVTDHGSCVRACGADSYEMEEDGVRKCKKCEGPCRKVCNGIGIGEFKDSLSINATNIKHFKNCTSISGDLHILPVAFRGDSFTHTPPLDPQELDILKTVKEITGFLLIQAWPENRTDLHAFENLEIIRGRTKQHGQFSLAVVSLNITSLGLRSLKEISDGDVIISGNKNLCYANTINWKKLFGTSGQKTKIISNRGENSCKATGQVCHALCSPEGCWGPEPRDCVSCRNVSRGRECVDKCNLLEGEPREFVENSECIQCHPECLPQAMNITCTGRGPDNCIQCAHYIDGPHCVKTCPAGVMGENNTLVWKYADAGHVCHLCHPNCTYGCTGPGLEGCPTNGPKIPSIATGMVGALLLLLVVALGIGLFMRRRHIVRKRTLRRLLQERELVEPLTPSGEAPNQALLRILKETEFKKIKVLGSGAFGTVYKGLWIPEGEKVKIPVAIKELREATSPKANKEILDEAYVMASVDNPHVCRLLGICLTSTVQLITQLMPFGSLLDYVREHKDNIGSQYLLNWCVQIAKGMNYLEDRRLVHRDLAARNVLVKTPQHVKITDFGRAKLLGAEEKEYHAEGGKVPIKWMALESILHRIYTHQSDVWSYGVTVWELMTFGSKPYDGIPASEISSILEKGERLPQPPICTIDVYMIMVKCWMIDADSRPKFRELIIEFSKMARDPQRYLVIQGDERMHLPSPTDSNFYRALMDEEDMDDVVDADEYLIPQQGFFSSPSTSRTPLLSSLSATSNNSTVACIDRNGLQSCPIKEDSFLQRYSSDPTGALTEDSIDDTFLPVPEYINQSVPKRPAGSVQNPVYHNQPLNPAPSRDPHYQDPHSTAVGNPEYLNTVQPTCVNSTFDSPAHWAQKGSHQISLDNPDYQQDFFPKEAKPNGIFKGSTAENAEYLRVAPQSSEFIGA
Chain of EGFR L858R (P00533 25-1210 L858R): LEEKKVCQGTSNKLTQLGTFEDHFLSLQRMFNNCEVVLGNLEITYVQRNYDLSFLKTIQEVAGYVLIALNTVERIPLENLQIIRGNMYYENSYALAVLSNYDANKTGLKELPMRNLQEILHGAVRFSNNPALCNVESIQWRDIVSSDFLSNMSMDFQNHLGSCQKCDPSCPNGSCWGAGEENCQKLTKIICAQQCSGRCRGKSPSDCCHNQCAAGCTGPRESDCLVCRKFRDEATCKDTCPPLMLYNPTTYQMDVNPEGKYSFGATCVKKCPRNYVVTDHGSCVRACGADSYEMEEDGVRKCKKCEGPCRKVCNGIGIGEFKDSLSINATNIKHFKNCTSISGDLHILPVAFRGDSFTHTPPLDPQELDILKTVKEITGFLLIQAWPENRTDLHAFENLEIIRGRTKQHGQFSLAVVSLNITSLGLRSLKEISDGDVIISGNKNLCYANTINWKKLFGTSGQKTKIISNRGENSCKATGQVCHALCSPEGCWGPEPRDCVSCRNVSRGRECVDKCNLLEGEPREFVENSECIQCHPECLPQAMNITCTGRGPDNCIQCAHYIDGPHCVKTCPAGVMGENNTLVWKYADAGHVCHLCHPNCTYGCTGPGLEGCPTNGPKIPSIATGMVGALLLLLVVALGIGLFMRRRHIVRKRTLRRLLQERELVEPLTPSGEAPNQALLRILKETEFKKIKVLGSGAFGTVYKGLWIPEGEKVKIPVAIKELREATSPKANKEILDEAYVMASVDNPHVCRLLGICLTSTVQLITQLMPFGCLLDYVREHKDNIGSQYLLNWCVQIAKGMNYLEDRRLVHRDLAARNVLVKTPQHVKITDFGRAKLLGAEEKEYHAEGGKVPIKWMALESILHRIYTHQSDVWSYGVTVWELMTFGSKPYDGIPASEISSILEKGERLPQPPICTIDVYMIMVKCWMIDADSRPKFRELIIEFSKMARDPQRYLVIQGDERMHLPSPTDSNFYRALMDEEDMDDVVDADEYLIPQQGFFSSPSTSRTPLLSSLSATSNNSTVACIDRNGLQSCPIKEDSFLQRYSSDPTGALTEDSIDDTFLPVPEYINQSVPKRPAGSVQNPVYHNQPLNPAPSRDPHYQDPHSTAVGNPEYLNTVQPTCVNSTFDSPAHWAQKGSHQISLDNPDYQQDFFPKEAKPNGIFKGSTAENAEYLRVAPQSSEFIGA

As a reminder, the IC50 is the concentration at which inhibition is half-maximal. In the case of `C=C1CC[C@H]2C[C@@H](N3Cc4cnc(Nc5ccc(N6CCN(C)CC6)cc5)nc4N(C)C3=O)CCN2C1=O` [Compound 157, 1-methyl-S-(7-methylene-6-oxo-2,3,4,8,9,9a-hexahydro-1 H-quinolizin-2-yl)-7-[4-(4-methylpiperazin-1-yl)anilino]-4H-pyrimido[4,5-d]pyrimidin-2-one], the IC50 on EGFR L858R and at EGFR L858R/T790M was greater than 1000 nM in each case. Also, the GI50 in assay [1] and in assay [2] was no less than 2500 nM throughout.
As to `C=CC(=O)Nc1cccc(N2C(=O)N(C3CCN(C(=O)C=C)c4ccccc43)Cc3cnc(Nc4ccc(N5CCN(C)CC5)cc4)nc32)c1` (stereo not drawn) [Compound 158, N-[3-[7-[4-(4-methylpiperazin-1-yl)anilino]-2-oxo-S-(1-prop-2-enoyl-3,4-dihydro-2H-quinolin-4-yl)-4H-pyrimido[4,5-d]pyrimidin-1-yl]phenyl]prop-2-enamide], the IC50 at EGFR L858R came out at 1.07 nM; on EGFR L858R/T790M, 0.71 nM. For the same compound, the GI50 in assay [1] and in assay [2] was less than 100 nM in each case.
Consider `C=CC(=O)N1CCC(N2Cc3cnc(Nc4ccc(N5CCN(C)CC5)cc4)nc3N(C)C2=O)C(c2ccccc2)C1` (stereo not drawn) [Compound 159], for which the IC50 on EGFR L858R and against EGFR L858R/T790M was greater than 100 nM in each case. For the same compound, the GI50 is 500 to 2500 nM in assay [1] and no less than 2500 nM in assay [2].
